Measured values as given in PubChem BioAssay AID1919002 (Molecular Pharmacology Branch, DTP, NCI, 2023).
pIC50: −log10 of the molar value.

Tested on: 743489-274-T-PDC complex spheroid growth
Test: Anticancer human tumor 743489-274-T-PDC patient-derived renal cell carcinoma cell line growth inhibition [AhR]
Settings: for pIC50: curve of first compound; for viability, T/C: stronger effect = lower value
Procedure, shortened: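 Agents were dosed in half-log steps down from roughly clinical Cmax, or from 10 microM where Cmax was unknown, alone and with AhR antagonists. Read-out: percent test/control growth of tumor spheroids containing HUVEC and MSC stromal cells.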

[1] = second compound 0.1 µM, first compound 0.0316 µM
[2] = second compound 0.1 µM, first compound 0.1 µM
[3] = second compound 0.1 µM, first compound 0.316 µM
[4] = second compound 0.1 µM, first compound 1 µM
[5] = second compound 0.1 µM, first compound 3.16 µM
[6] = second compound 0.1 µM, first compound 10 µM
[7] = second compound 0.316 µM, first compound 0.0316 µM
[8] = second compound 0.316 µM, first compound 0.1 µM
[9] = second compound 0.316 µM, first compound 0.316 µM
[10] = second compound 0.316 µM, first compound 1 µM
[11] = second compound 0.316 µM, first compound 3.16 µM
[12] = second compound 0.316 µM, first compound 10 µM
[13] = second compound 1 µM, first compound 0.0316 µM
[14] = second compound 1 µM, first compound 0.1 µM
[15] = second compound 1 µM, first compound 0.316 µM
[16] = second compound 1 µM, first compound 1 µM
[17] = second compound 1 µM, first compound 3.16 µM
[18] = second compound 1 µM, first compound 10 µM
[19] = second compound 3.16 µM, first compound 0.0316 µM
[20] = second compound 3.16 µM, first compound 0.1 µM
[21] = second compound 3.16 µM, first compound 0.316 µM
[22] = second compound 3.16 µM, first compound 1 µM
[23] = second compound 3.16 µM, first compound 3.16 µM
[24] = second compound 3.16 µM, first compound 10 µM
[25] = second compound 10 µM, first compound 0.0316 µM
[26] = second compound 10 µM, first compound 0.1 µM
[27] = second compound 10 µM, first compound 0.316 µM
[28] = second compound 10 µM, first compound 1 µM
[29] = second compound 10 µM, first compound 3.16 µM
[30] = second compound 10 µM, first compound 10 µM
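Note: spheroids exposed to agents for 7 days before readout.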
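Throughout, for viability, T/C: 100% = DMSO vehicle control wells.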

pIC50 (second compound 0.1 µM)	pIC50 (second compound 0.316 µM)	pIC50 (second compound 1 µM)	pIC50 (second compound 3.16 µM)	pIC50 (second compound 10 µM)	Compound	viability, T/C [1] [%]	viability, T/C [2] [%]	viability, T/C [3] [%]	viability, T/C [4] [%]	viability, T/C [5] [%]	viability, T/C [6] [%]	viability, T/C [7] [%]	viability, T/C [8] [%]	viability, T/C [9] [%]	viability, T/C [10] [%]	viability, T/C [11] [%]	viability, T/C [12] [%]	viability, T/C [13] [%]	viability, T/C [14] [%]	viability, T/C [15] [%]	further results
< 5.00	< 5.00	< 5.00	< 5.00	< 5.00	O=C(c1cc(Cc2n[nH]c(=O)c3ccccc23)ccc1F)N1CCN(C(=O)C2CC2)CC1 + Cc1cncc(-c2nc(NCCc3c[nH]c4ccccc34)c3ncn(C(C)C)c3n2)c1	91.6	96.4	99	88.3	86.1	85.6	87.1	84.4	94.2	86.2	82.1	88.4	98.8	99.9	94.5	viability, T/C [16]: 93.2%; viability, T/C [17]: 89.9%; viability, T/C [18]: 85.4%; viability, T/C [19]: 93.3%; viability, T/C [20]: 102%; viability, T/C [21]: 100%; viability, T/C [22]: 90%; viability, T/C [23]: 85.7%; viability, T/C [24]: 95.1%; viability, T/C [25]: 104%; viability, T/C [26]: 102%; viability, T/C [27]: 111%; viability, T/C [28]: 102%; viability, T/C [29]: 105%; viability, T/C [30]: 103%
< 5.00	< 5.00	< 5.00	< 5.00	< 5.00	O=C(C=Cc1cccc(S(=O)(=O)Nc2ccccc2)c1)NO + Cc1cncc(-c2nc(NCCc3c[nH]c4ccccc34)c3ncn(C(C)C)c3n2)c1	88.3	87.7	85.9	77.5	69.1	51.4	91.6	95	82.4	72.6	66.6	52.4	98.1	94.3	88.4	viability, T/C [16]: 70.6%; viability, T/C [17]: 67.5%; viability, T/C [18]: 52.7%; viability, T/C [19]: 102%; viability, T/C [20]: 104%; viability, T/C [21]: 94%; viability, T/C [22]: 82%; viability, T/C [23]: 73.1%; viability, T/C [24]: 54.6%; viability, T/C [25]: 114%; viability, T/C [26]: 118%; viability, T/C [27]: 120%; viability, T/C [28]: 102%; viability, T/C [29]: 78%; viability, T/C [30]: 68.1%
< 5.00	< 5.00	< 5.00	< 5.00	< 5.00	CC1COCCN1c1cc(C2(S(C)(=N)=O)CC2)nc(-c2ccnc3[nH]ccc23)n1 (stereo not given) + CC(CO)NC(=O)c1cc(-c2ccc(Cl)cc2)nn(-c2cnn(C)c2)c1=O	97.5	89.1	94.7	92	98.7	96.7	90.2	99.5	96.3	86.2	85.3	91.3	99	84.7	95.3	viability, T/C [16]: 101%; viability, T/C [17]: 87.4%; viability, T/C [18]: 93%; viability, T/C [19]: 92.7%; viability, T/C [20]: 86.8%; viability, T/C [21]: 86.1%; viability, T/C [22]: 90.3%; viability, T/C [23]: 84.5%; viability, T/C [24]: 103%; viability, T/C [25]: 109%; viability, T/C [26]: 94.2%; viability, T/C [27]: 89.9%; viability, T/C [28]: 83.3%; viability, T/C [29]: 93.7%; viability, T/C [30]: 102%
